The source of these data is PubChem BioAssay AID208 (DTP/NCI, 2004).

Each structure is given as a SMILES string. Records with an inconclusive call do not appear.

In this experiment the test system is HT29 intrarenal xenograft, nude mice, tumor weight change. Kind of experiment: NCI In Vivo Anticancer Drug Screen. Data for tumor model HT29;CX-1 Human Adenocarcinoma (MER+) (intrarenal inoculation) in NU/NU BALB/C (nude) mice. The settings on record: endpoint: mean tumor weight change, higher = larger tumour. The procedure:
The antitumor activity of compounds was measured in mice bearing transplantable tumors. Survival or tumor size were measured and the results are expressed as the measurement made in the treated group (T) divided by the measurement made in the vehicle treated control group (C). The tumor model used in this assay is HT29;CX-1 Human Adenocarcinoma (MER+) (intrarenal inoculation) in NU/NU BALB/C (nude) mice

`O=C1N[C@@H]2C(=C[C@H](O)[C@@H](O)[C@H]2O)c2cc3c(c(O)c21)OCO3`: the T/C (dose: 5.0 mg/kg/injection, schedule: Q04DX004 (sc), vehicle: saline with Tween-80) is 177 % of control.

Take `C=CS(=O)(=O)c1ccccc1`: the T/C reads like this: (dose: 50.0 mg/kg/injection, schedule: Q01DX010 (sc), vehicle: saline) 49 % of control; (dose: 100.0 mg/kg/injection, schedule: Q01DX010 (sc), vehicle: saline) 82 % of control.

Turning to `CNC(=O)ON(C(C)=O)C(=O)NC`, the T/C reads like this: (dose: 25.0 mg/kg/injection, schedule: Q04DX004 (sc), vehicle: saline) 114 % of control; (dose: 50.0 mg/kg/injection, schedule: Q04DX004 (sc), vehicle: saline) 80 % of control; (dose: 100.0 mg/kg/injection, schedule: Q04DX004 (sc), vehicle: saline) 56 % of control.

As for `O=C(O)CC(=O)O.[NH-]C1CCCCC1[NH-].[Pt+2]` (stereo not drawn), the T/C is 64 % of control (dose: 10.0 mg/kg/injection, schedule: Q01DX010 (sc), vehicle: dextrose); 40 % of control (dose: 20.0 mg/kg/injection, schedule: Q01DX010 (sc), vehicle: dextrose); 7 % of control (dose: 40.0 mg/kg/injection, schedule: Q01DX010 (sc), vehicle: dextrose).

Consider `C=CC(C)(C)n1cc(C2=C(O)C(=O)C(c3cn(C(C)(C)C=C)c4ccccc34)=C(O)C2=O)c2ccccc21`, for which the T/C by setting is: (dose: 25.0 mg/kg/injection, schedule: Q04DX004 (sc), vehicle: Klucel (hydroxypropylcellulose) (HPC)) 113 % of control; (dose: 100.0 mg/kg/injection, schedule: Q04DX004 (sc), vehicle: Klucel (hydroxypropylcellulose) (HPC)) 118 % of control; (dose: 200.0 mg/kg/injection, schedule: Q04DX004 (sc), vehicle: Klucel (hydroxypropylcellulose) (HPC)) 121 % of control.

For the compound `[N-]=[N+]=[N-]`, the T/C runs as follows: (dose: 1.5 mg/kg/injection, schedule: Q04DX004 (ip), vehicle: water) 79 % of control; (dose: 3.0 mg/kg/injection, schedule: Q04DX004 (ip), vehicle: water) 90 % of control; (dose: 6.0 mg/kg/injection, schedule: Q04DX004 (ip), vehicle: water) 59 % of control; (dose: 12.0 mg/kg/injection, schedule: Q04DX004 (ip), vehicle: water) 62 % of control.

Take `Nc1nc2ccc(NCc3ccc(C(=O)NC(CCC(=O)O)C(=O)O)cc3)cc2c(=O)[nH]1` (stereo not drawn): the T/C (dose: 200.0 mg/kg/injection, schedule: Q04DX004 (sc), vehicle: saline with Tween-80) was 92 % of control and the T/C (dose: 400.0 mg/kg/injection, schedule: Q04DX004 (sc), vehicle: saline with Tween-80) is 105 % of control.
